# Patent US20230279020A9, “CARM1 INHIBITORS AND USES THEREOF” (Epizyme, Inc., priority 2013, published 2023)
# Biological target: Human CARM1 (PRMT4) (Homo sapiens (Human), UniProt Q86X55)
# Test: CARM1 enzyme assay on peptide substrate (3H-SAM Flashplate)
# Settings: Biochemical potencies, classification codes; read-out: Biochem IC50
# Chain of Human CARM1 (PRMT4) (Q86X55 other isoform, or with tags, fused parts or gaps isoform Q86X55-1): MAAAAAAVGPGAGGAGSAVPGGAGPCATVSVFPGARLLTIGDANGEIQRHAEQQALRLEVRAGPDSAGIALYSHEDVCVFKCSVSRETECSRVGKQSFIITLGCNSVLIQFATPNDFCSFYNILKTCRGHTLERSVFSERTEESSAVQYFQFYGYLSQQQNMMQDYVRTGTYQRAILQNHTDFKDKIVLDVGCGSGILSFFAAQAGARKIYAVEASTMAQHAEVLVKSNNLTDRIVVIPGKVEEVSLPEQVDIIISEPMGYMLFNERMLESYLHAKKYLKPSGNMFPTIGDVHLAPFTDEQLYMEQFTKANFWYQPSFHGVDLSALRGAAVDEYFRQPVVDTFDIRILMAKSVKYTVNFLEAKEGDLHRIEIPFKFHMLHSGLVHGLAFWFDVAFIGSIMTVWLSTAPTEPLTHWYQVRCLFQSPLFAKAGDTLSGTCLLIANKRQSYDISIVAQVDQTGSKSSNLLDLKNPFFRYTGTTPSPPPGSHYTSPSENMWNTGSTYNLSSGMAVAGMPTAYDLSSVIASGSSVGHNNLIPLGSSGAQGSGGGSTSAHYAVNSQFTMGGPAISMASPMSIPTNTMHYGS
row,IC50,SMILES
1,< 0.1 µM,CNC[C@H](O)COc1ccc(F)c(-c2nc(-c3c(C)noc3C)c(C)c(N3CCC4(CC3)CN(C(=O)OC)C4)n2)c1 [Example 84-3]
2,< 0.1 µM,CNCC(O)COc1cccc(-c2nc(NC3(C)CCOCC3)cc(-c3c(C)noc3C)n2)c1 (stereo not shown) [Example 85-1a]
3,< 0.1 µM,CNC[C@H](O)COc1ccc(Cl)c(-c2nc(-c3c(C)noc3C)c(C)c(N3CCC4(CC3)CN(C(=O)OC)C4)n2)c1 [Example 85-3]
4,< 0.1 µM,CNCC(O)COc1cccc(-c2nc(-c3c(C)noc3C)c(C)c(N(C)CC3CCOCC3)n2)c1 (stereo not shown) [Example 86-1a]
5,< 0.1 µM,CNC[C@H](O)COc1ccc(Cl)c(-c2nc(-c3c(C)noc3C)c(C)c(N3Cc4cc(F)cnc4C3)n2)c1 [Example 86-3]
6,< 0.1 µM,CNCC(O)COc1cccc(-c2nc(-c3c(C)noc3C)cc(N(C)CC3CCOCC3)n2)c1 (stereo not shown) [Example 87-1a]
7,< 0.1 µM,CNC[C@H](O)COc1ccc(Cl)c(-c2nc(-c3c(C)noc3C)c(C)c(N3Cc4cc(Cl)cnc4C3)n2)c1 [Example 87-3]
8,< 0.1 µM,CNCC(O)COc1cccc(-c2nc(NCC3CCOCC3)c(C)c(-c3c(C)noc3C)n2)c1 (stereo not shown) [Example 88-1a]
9,< 0.1 µM,CCOC(=O)N1CCC(Nc2nc(-c3cc(OC[C@H](O)CNC)ccc3Cl)nc(-c3c(C)noc3C)c2C)CC1 [Example 88-3]
10,< 0.1 µM,CNCC(O)COc1cccc(-c2nc(-c3c(C)noc3C)c(C)c(N(C)C3CCN(C(=O)OC)CC3)n2)c1 (stereo not shown) [Example 89-1a]
11,< 0.1 µM,CNC[C@H](O)COc1ccc(Cl)c(-c2nc(NC3CCN(C(=O)OC)CC3)c(C)c(-c3c(C)noc3C)n2)c1 [Example 89-3]
12,< 0.1 µM,CNCC(O)COc1cccc(-c2nc(-c3c(C)noc3C)cc(N(C)C3CCN(C(=O)OC)CC3)n2)c1 (stereo not shown) [Example 90-1a]
13,< 0.1 µM,CNC[C@H](O)COc1ccc(Cl)c(-c2nc(-c3c(C)noc3C)c(C)c(N3Cc4ccncc4C3)n2)c1 [Example 90-3]
14,< 0.1 µM,CNCC(O)COc1cccc(-c2nc(-c3c(C)noc3C)cc(N3CCN(C(=O)N(C)C)[C@@H](C)C3)n2)c1 (stereo partly shown) [Example 91-1a]
15,< 0.1 µM,CNC[C@H](O)COc1ccc(F)c(-c2nc(-c3c(C)noc3C)c(C)c(N3Cc4cccnc4C3)n2)c1 [Example 91-3]
16,< 0.1 µM,CNCC(O)COc1cccc(-c2nc(-c3c(C)noc3C)cc(N3CCN(S(C)(=O)=O)[C@@H](C)C3)n2)c1 (stereo partly shown) [Example 92-1a]
17,< 0.1 µM,CNC[C@H](O)COc1ccc(Cl)c(-c2nc(-c3c(C)noc3C)c(C)c(N3Cc4cccnc4C3)n2)c1 [Example 92-3]
18,< 0.1 µM,CNCC(O)COc1cccc(-c2nc(-c3c(C)noc3C)cc(N3CCN(C)[C@@H](C)C3)n2)c1 (stereo partly shown) [Example 93-1a]
19,< 0.1 µM,CCOC(=O)N1CCOC[C@@H]1CNc1nc(-c2cc(OCC(O)CNC)ccc2Cl)nc(-c2c(C)nsc2C)c1C (stereo partly shown) [Example 93-3]
20,< 0.1 µM,CNCC(O)COc1cccc(-c2nc(-c3c(C)noc3C)cc(N3C[C@@H]4C[C@H]3CN4C(=O)OC)n2)c1 (stereo partly shown) [Example 94-1a]
21,< 0.1 µM,CNC[C@H](O)COc1ccc(Cl)c(-c2nc(N[C@@H]3CCOC3)c(C)c(-c3c(C)noc3C)n2)c1 [Example 94-3]
22,< 0.1 µM,CNCC(O)COc1cccc(-c2nc(-c3c(C)noc3C)cc(N3C[C@@H]4C[C@H]3CN4C(C)=O)n2)c1 (stereo partly shown) [Example 95-1a]

row,IC50,SMILES
1,< 0.1 µM,CNC[C@H](O)COc1ccc(Cl)c(-c2nc(-c3c(C)noc3C)c(C)c(N(C)[C@H]3C[C@@](C)(OC)C3)n2)c1 [Example 95-3]
2,< 0.1 µM,CNCC(O)COc1cccc(-c2nc(NC3CCOCC3)c(F)c(-c3c(C)noc3C)n2)c1 (stereo not shown) [Example 96-1a]
3,< 0.1 µM,CNC[C@H](O)COc1ccc(Cl)c(-c2nc(NCC3COCCO3)c(C)c(-c3c(C)noc3C)n2)c1 (stereo partly shown) [Example 96-3]
4,< 0.1 µM,CNCC(O)COc1cccc(-c2nc(-c3c(C)noc3C)c(F)c(N3CCN(C(=O)OC)CC3)n2)c1 (stereo not shown) [Example 97-1a]
5,< 0.1 µM,CNCC(O)COc1ccc(Cl)c(-c2nc(NC3CCOCC3)c(C)c(-c3c(C)nsc3C)n2)c1 (stereo not shown) [Example 97-3]
6,< 0.1 µM,CNCC(O)COc1cccc(-c2nc(-c3c(C)noc3C)cc(N(CCOC)C3CCOCC3)n2)c1 (stereo not shown) [Example 98-1a]
7,< 0.1 µM,CNC[C@@H](O)COc1ccc(F)c(-c2nc(N[C@H]3CCN(C4CC4)C[C@H]3F)c(C)c(-c3c(C)noc3C)n2)c1 [Example 98-3]
8,< 0.1 µM,CNCC(O)COc1cccc(-c2nc(NCCCN3CCCCCC3=O)cc(-c3c(C)noc3C)n2)c1 (stereo not shown) [Example 99-1a]
9,< 0.1 µM,CNC[C@H](O)COc1ccc(F)c(-c2nc(N[C@H]3CCN(C4CC4)C[C@H]3F)c(C)c(-c3c(C)noc3C)n2)c1 [Example 99-3]
10,< 0.1 µM,CNCC(O)COc1cccc(-c2nc(-c3c(C)noc3C)cc(N3C[C@H]4C[C@@H]3CN4S(C)(=O)=O)n2)c1 (stereo partly shown) [Example 100-1a]
11,< 0.1 µM,CNC[C@@H](O)COc1ccc(Cl)c(-c2nc(N[C@@H]3CCOC3)c(C)c(-c3c(C)noc3C)n2)c1 [Example 100-3]
12,< 0.1 µM,CNCC(O)COc1cccc(-c2nc(NC3(C)CCOCC3)c(C)c(-c3c(C)noc3C)n2)c1 (stereo not shown) [Example 101-1a]
13,< 0.1 µM,CNC[C@@H](O)COc1ccc(Cl)c(-c2nc(N[C@@H]3CCN(C(=O)OC)[C@@H](C)C3)c(C)c(-c3c(C)noc3C)n2)c1 [Example 101-3]
14,< 0.1 µM,CNCC(O)COc1cccc(-c2nc(NC3CCN(C(=O)OC)CC3)cc(-c3c(C)noc3C)n2)c1 (stereo not shown) [Example 102-1a]
15,< 0.1 µM,CNC[C@@H](O)COc1ccc(Cl)c(-c2nc(N[C@H]3CCN(C(=O)OC)[C@H](C)C3)c(C)c(-c3c(C)noc3C)n2)c1 [Example 102-3]
16,< 0.1 µM,CNCC(O)COc1cccc(-c2nc(-c3c(C)noc3C)cc(N3CCN(CCF)[C@@H](C)C3)n2)c1 (stereo partly shown) [Example 103-1a]
17,< 0.1 µM,CNC[C@H](O)COc1ccc(Cl)c(-c2nc(N[C@H]3CCN(C(=O)OC)[C@H](C)C3)c(C)c(-c3c(C)noc3C)n2)c1 [Example 103-3]
18,< 0.1 µM,CNCC(O)COc1cccc(-c2nc(-c3c(C)noc3C)cc(N3CCN(CC(F)(F)F)[C@@H](C)C3)n2)c1 (stereo partly shown) [Example 104-1a]
19,< 0.1 µM,CNC[C@@H](O)COc1ccc(Cl)c(-c2nc(NC3CCN(C(=O)OC)CC3)c(C)c(-c3c(C)noc3C)n2)c1 [Example 104-3]
20,< 0.1 µM,CCOC(=O)N1CCC(Nc2nc(-c3cc(OC[C@@H](O)CNC)ccc3Cl)nc(-c3c(C)noc3C)c2C)CC1 [Example 105-3]
21,< 0.1 µM,CCNC(=O)N1CCN(c2nc(-c3cccc(OCC(O)CNC)c3)nc(-c3c(C)noc3C)c2C)CC1 (stereo not shown) [Example 106-1a]
22,< 0.1 µM,CNC[C@H](O)COc1ccc(F)c(-c2nc(-c3c(C)noc3C)c(C)c(N3CCC4(CCN(C(=O)OC)C4)C3)n2)c1 (stereo partly shown) [Example 106-3]

row,IC50,SMILES
1,< 0.1 µM,CNCC(O)COc1cccc(-c2nc(-c3c(C)noc3C)c(C)c(N3CCN(C(=O)C(F)F)CC3)n2)c1 (stereo not shown) [Example 107-1a]
2,< 0.1 µM,CNCC(O)COc1cccc(-c2nc(-c3c(C)noc3C)c(C)c(N3CCN(C(=O)C4CCOCC4)CC3)n2)c1 (stereo not shown) [Example 108-1a]
3,< 0.1 µM,CNC[C@@H](O)COc1ccc(Cl)c(-c2nc(-c3c(C)noc3C)c(C)c(N3CC4(CCN(C5CC5)CC4)C3)n2)c1 [Example 108-3]
4,< 0.1 µM,CNCC(O)COc1cccc(-c2nc(-c3c(C)noc3C)cc(N3C[C@H]4C[C@@H]3CN4)n2)c1 (stereo partly shown) [Example 109-1a]
5,< 0.1 µM,CNCC(O)COc1cccc(-c2nc(-c3c(C)noc3C)c(C)c(N3CCN4C(=O)OC[C@@H]4C3)n2)c1 (stereo partly shown) [Example 110-1a]
6,< 0.1 µM,CNC[C@@H](O)COc1ccc(Cl)c(-c2nc(N[C@H]3C[C@@](C)(OC)C3)c(C)c(-c3c(C)noc3C)n2)c1 [Example 110-3]
7,< 0.1 µM,CNCC(O)COc1cccc(-c2nc(-c3c(C)noc3C)c(C)c(N3CC[C@@H](S(C)(=O)=O)C3)n2)c1 (stereo partly shown) [Example 111-1a]
8,< 0.1 µM,CNC[C@@H](O)COc1ccc(Cl)c(-c2nc(N[C@H]3CCOC3)c(C)c(-c3c(C)noc3C)n2)c1 [Example 111-3]
9,< 0.1 µM,CNCC(O)COc1cccc(-c2nc(-c3c(C)noc3C)cc(-c3cnc4cnccn34)n2)c1 (stereo not shown) [Example 112-1a]
10,< 0.1 µM,CCOC(=O)N1CC[C@@H](Nc2nc(-c3cc(OC[C@H](O)CNC)ccc3Cl)nc(-c3c(C)noc3C)c2C)C1 [Example 112-3]
11,< 0.1 µM,CNCC(O)COc1cccc(-c2nc(NCC3(O)CCOCC3)c(C)c(-c3c(C)noc3C)n2)c1 (stereo not shown) [Example 114-1a]
12,< 0.1 µM,CNC[C@@H](O)COc1ccc(F)c(-c2nc(-c3c(C)noc3C)c(C)c(N3Cc4cccnc4C3)n2)c1 [Example 114-3]
13,< 0.1 µM,CNCC(O)COc1cccc(-c2nc(NCC3(C)CCOCC3)c(C)c(-c3c(C)noc3C)n2)c1 (stereo not shown) [Example 115-1a]
14,< 0.1 µM,CNC[C@@H](O)COc1ccc(Cl)c(-c2nc(-c3c(C)noc3C)c(C)c(N3CCC4(CC3)CN(C(=O)OC)C4)n2)c1 [Example 115-3]
15,< 0.1 µM,CNC[C@@H](O)COc1ccc(Cl)c(-c2nc(OC[C@H]3CCCO3)c(C)c(-c3c(C)noc3C)n2)c1 [Example 116-3]
16,< 0.1 µM,CNC[C@@H](O)COc1ccc(Cl)c(-c2nc(OC[C@H]3CCOC3)c(C)c(-c3c(C)noc3C)n2)c1 [Example 117-3]
17,< 0.1 µM,CNCC(O)COc1cccc(-c2nc(NC3CCN(C(=O)OC)CC3)c(C)c(-c3c(C)noc3C)n2)c1 (stereo not shown) [Example 118-1a]
18,< 0.1 µM,CNC[C@@H](O)COc1ccc(Cl)c(-c2nc(-c3c(C)noc3C)c(C)c(N3CC4(CCOCC4)C3)n2)c1 [Example 118-3]
19,< 0.1 µM,CNC[C@@H](O)COc1ccc(Cl)c(-c2nc(-c3c(C)noc3C)c(C)c(N3CC4(CCCOC4)C3)n2)c1 [Example 119-3]
20,< 0.1 µM,CNCC(O)COc1cccc(-c2nc(-c3c(C)noc3C)cc(N3CCN(C(=O)N(C)C)CC3)n2)c1 (stereo not shown) [Example 120-1a]
21,< 0.1 µM,CNC[C@@H](O)COc1ccc(Cl)c(-c2nc(-c3c(C)noc3C)c(C)c(N3CC4(CCOC4)C3)n2)c1 [Example 120-3]

row,SMILES,IC50
1,CNCC(O)COc1cccc(-c2nc(-c3c(C)noc3C)c(C)c(N3C[C@H]4CC[C@@H](C3)N4C)n2)c1 (stereo partly shown) [Example 116-1a],< 0.1 µM
2,CNCC(O)COc1cccc(-c2nc(-c3c(C)noc3C)c(C)c(N3[C@@H]4CC[C@H]3CN(C)C4)n2)c1 (stereo partly shown) [Example 117-1a],< 0.1 µM
